We go through one compound from patent US8198317B2, “Methylenedioxy phenolic compounds and their use to treat disease” (The Ohio State University Research Foundation, priority 2008, dated 2012).

What all share (assay type): in vivo, rabbit
The subject of test [1] is New Zealand White rabbits. In words: Oil Red O staining of abdominal aorta of NZW rabbits. Particulars: NZW abdominal aorta. As for the experimental part:
(§1) Animal Model: 15 male New Zealand White rabbits (Charles River, Mass.) were fed with high fat diet (HFD) (Harlan Teklad rabbit diet with 0.5% cholesterol, TD 87251). After 4 weeks of high fat diet, rabbits were randomized into three different treatment groups, normal control (n=5), lipoic acid (100 mg/kg/day) (n=5), INV 70-65 (100 mg/kg/day) (n=5). These drugs were administered to the animals via their chow by mixing the drugs with the high fat diet. A fixed amount of chow and drugs admixed in the chow were fed to all animals every day after carefully calculating food intake in each rabbit. Drugs were dissolved in 100% ethanol and sprayed onto the diet and kept under vacuum to let ethanol evaporate overnight. Two (2) weeks after drug or control admixed HFD, all rabbits underwent aortic balloon denudation surgeries followed by 12 weeks of continued administration of drug or controls admixed with HFD. FIG. 29 provides an outline of the experimental design.
Hypercholesterolemia and oxidative stress play an important role in the development of atherosclerosis. The rabbits were sacrificed and abdominal aortas were fixed in 4% PFA (paraformaldehyde). The lipid deposition in the aortic wall was then visualized by oil red staining.

Test [2] relates to New Zealand White rabbits. Kind of test: Plasma lipid profile in NZW rabbits. The conditions noted are these: end of treatment. As for the experimental part:
as §1
A lipid profile (Cholesterol, Triglycerides, direct HDL, LDL and VLDL) was performed after a total of 12 weeks of treatment with the drugs. One (1) ml of blood from the ear lobe vein was placed into tubes containing K EDTA at the beginning of the high cholesterol diet and again at the time of sacrifice. All values were expressed as mean±SD. The bar graph of each group both at the baseline and the end point measurement is presented. The statistical analysis was done with one way ANOVA.

Test [3] relates to thoracic aorta of New Zealand White rabbits. In words: Myograph experiments on thoracic aortic rings of NZW rabbits. Particulars: NZW thoracic aorta, end of 12 weeks. As for the experimental part:
as §1
Rabbits were euthanized by injection of lethal doses of pentobarbital. The thoracic aortas were collected for the myograph studies. Two (2) mm thoracic aortic rings were suspended in individual organ chambers filled with physiological salt solution buffer (sodium chloride, 130 mEq/L; potassium chloride, 4.7 mEq/L; calcium dichloride, 1.6 mEq/L; magnesium sulfate, 1.17 mEq/L; potassium diphosphate, 1.18 mEq/L; sodium bicarbonate, 14.9 mEq/L; EDTA, 0.026 mEq/L; and glucose, 99.1 mg/dL [5.5 mmol/L]; pH, 7.4), aerated continuously with 5% carbon dioxide in oxygen at 37° C. Vessels were allowed to equilibrate for at least 1 hour at a resting tension of 30 mN before being subjected to graded doses of agonists. The vasoconstrictor agonist phenylephrine (PE) was used and responses were expressed as a percentage of the peak response to 120 mEq/L of potassium chloride. The vessels subjected to PE were washed thoroughly and allowed to equilibrate for 1 hour before beginning experiments with acetylcholine or sodium nitroprusside (SNP). […] Results for the vasodilators were expressed as a percentage of pre-contraction by PE (0.1 μM).

Test [4] relates to New Zealand White rabbits. Kind of test: MRI assessment of atherosclerosis in balloon denuded NZW rabbits. Particulars: high fat diet, 100 mg/kg/day, 12 weeks. On the procedure: as §1
MRI experiments were conducted at two time points: 1 week and 12 weeks after the balloon denudation procedure (FIG. 29). […] MR images were analyzed using a Siemens Leonardo Workstation (Siemens Healthcare Inc. Germany).
To assess the different rates of atherosclerosis plaque progression for each rabbit group, the aortic wall was identified in the pre-contrast images at both MRI time points. […] To account for the variable number of slices, for each rabbit a normalized aortic wall volume was calculated.
To assess plaque neovasculature progression in the different treatment groups, only the 12 weeks post balloon denudation MR images were used. […] The signal to noise ratio (SNR) for each slice was calculated as the mean signal obtained from the vessel wall divided by the standard deviation of the noise from a region outside the body. A ratio of the SNR enhancement for each rabbit was obtained by dividing the post and pre contrast calculated SNRs.

“Also recorded” adds a separate entry of the source.

As to `O=C(O)CCCC[C@@H]1CCSS1` (racemic) [Lipoic Acid, lipoic acid, reference compound], in test [1], the “lipid content in the plaque area (Oil Red O) compared to the control group” value was “reduction”. Further, in test [2], the HDL levels result is recorded as “increased moderately”, the “LDL level compared to normal control” value was “moderate decreases; also recorded: lower”, the “TC level compared to normal control” value is recorded as “moderate decreases” and the “VLDL levels compared to controls” value was “no change”. In test [2], the “triglyceride (TG) levels compared to controls” value is listed as “significantly decreased”. Also, in test [3], the “Ach LogEC50” value is listed as −6.47 ± 0.18 M, the “PE LogEC50” value is on record as −6.48 ± 0.09 M and the “SNP-1 LogEC50” value is listed as −6.75 ± 0.21 M. In test [3] (% of peak response to KCl), the “PE Maximum Effect” value worked out at 154.0 ± 7.24%. For the same compound, in test [3] (% of pre-contraction by PE), the “Ach Maximum Effect” value is recorded as −33.00 ± 2.94 %, the “Insulin Maximum Effect” value is listed as −107.8 ± 7.68% and the “SNP-1 Maximum Effect” value is given as −89.04 ± 7.67%. In addition, in test [4], the “plaque burden by MRI” value is recorded as “no difference”.
